From EP4596574A1, “GLP-1/GCG/GIP TRIPLE-RECEPTOR AGONIST AND USE THEREOF” (Sunshine Lake Pharma Co., Ltd., priority 2022, dated 2024) come the findings set out here.

Starred links: 1 amine or outer side, 2 acyl side, 3 side chain; linkers in the order of their positions; H or OH if unused. Non-standard residues stand in square brackets, D forms with d. Residues, ends and D or L forms follow the SMILES beside them. Groups on a side chain read outwards from the residue. *: point of attachment. C20 diacid = O=C(O)CCCCCCCCCCCCCCCCCCC(=O)*; C18 diacid = O=C(O)CCCCCCCCCCCCCCCCC(=O)*; αMePhe(2-F) = C[C@](N)(Cc1ccccc1F)C(=O)O; γGlu = O=C(O)[C@H](CCC(=O)[*:2])N[*:1]; AEEA = NCCOCCOCC(=O)O; Aib = CC(C)(N)C(=O)O

Holding throughout (type): cell-based
One assay deals with T1, GLP-1R (Homo sapiens, UniProt P43220).
T1 construct: expressed in transfected cells; host or cells: HEK293 (HEK293-GLP-1R)
Description: In vitro cell activity, cAMP production in HEK293 cells expressing GLP-1R. Conditions: HEK293-GLP-1R cells, cAMP; read-out: GLP-1R (EC50). In outline:
(§1)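 Cells were plated at 4×10^5 cells/mL, and detection reagents (cAMP-d2, anti-cAMP cryptate, 1:1) were incubated 1 h at room temperature in the dark or overnight at 4 °C.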

For a further assay, the target named is T2, GCGR (Homo sapiens, UniProt P47871).
T2 construct: expressed in transfected cells; host or cells: HEK293 (HEK293-GCGR)
Description: In vitro cell activity, cAMP production in HEK293 cells expressing GCGR. Conditions: HEK293-GCGR cells, cAMP; read-out: GCGR (EC50). In outline:
as §1
(In general: Changes in cAMP serve as a functional read-out for many G protein-coupled receptors.)

The next assay deals with T3, GIPR (Homo sapiens, UniProt P48546).
T3 construct: expressed in transfected cells; host or cells: HEK293 (HEK293-GIPR)
T3 sequence (P48546 22-466): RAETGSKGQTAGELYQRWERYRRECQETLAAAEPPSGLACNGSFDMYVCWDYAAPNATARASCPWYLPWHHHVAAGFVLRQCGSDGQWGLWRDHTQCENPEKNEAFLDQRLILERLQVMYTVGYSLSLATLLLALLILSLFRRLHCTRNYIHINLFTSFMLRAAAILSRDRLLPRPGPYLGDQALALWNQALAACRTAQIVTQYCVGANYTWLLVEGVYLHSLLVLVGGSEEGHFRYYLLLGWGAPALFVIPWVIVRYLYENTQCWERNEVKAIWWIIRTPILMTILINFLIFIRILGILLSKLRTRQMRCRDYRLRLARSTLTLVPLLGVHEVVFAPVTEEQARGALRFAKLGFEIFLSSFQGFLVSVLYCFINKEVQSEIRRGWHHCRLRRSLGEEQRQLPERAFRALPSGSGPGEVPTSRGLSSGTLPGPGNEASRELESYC
In words: In vitro cell activity, cAMP production in HEK293 cells expressing GIPR. Conditions: HEK293-GIPR cells, cAMP; read-out: GIPR (EC50). Put shortly: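 cAMP accumulation is quantified by homogeneous TR-FRET (cAMP-d2 plus anti-cAMP cryptate) in GIPR-expressing HEK293 cells seeded from a 4×10^5 cells/mL suspension and treated with compound. The signal ratio is plotted against concentration and fitted to a four-parameter curve to give EC50.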

T2 sequence (P47871 26-477, species assumed): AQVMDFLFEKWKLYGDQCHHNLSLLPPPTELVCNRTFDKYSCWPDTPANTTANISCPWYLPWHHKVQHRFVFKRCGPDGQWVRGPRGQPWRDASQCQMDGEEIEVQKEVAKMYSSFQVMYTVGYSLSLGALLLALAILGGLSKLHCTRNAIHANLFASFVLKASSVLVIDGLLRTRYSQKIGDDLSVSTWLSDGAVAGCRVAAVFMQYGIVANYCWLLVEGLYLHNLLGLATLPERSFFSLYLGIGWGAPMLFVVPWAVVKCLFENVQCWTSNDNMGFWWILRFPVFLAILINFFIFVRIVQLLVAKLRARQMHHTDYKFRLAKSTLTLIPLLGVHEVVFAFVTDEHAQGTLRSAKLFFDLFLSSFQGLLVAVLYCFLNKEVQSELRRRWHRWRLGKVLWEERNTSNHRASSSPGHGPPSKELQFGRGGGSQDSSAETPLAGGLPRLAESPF
T1 sequence (P43220 24-463, species assumed): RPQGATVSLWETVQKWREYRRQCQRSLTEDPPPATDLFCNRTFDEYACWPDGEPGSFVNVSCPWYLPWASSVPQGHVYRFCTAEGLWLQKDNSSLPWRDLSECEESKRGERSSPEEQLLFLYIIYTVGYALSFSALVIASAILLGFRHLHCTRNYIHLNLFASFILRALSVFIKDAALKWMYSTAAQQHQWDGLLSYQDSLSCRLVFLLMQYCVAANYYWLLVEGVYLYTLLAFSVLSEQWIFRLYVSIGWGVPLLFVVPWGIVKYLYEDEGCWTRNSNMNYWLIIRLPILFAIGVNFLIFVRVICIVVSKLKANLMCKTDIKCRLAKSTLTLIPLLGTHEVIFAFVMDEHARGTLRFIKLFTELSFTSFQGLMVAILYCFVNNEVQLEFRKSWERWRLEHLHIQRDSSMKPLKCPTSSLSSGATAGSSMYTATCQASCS

The term EC50 denotes the concentration that produces a half-maximal response. In the case of `CC[C@H](C)[C@H](NC(=O)[C@H](Cc1ccccc1)NC(=O)[C@H](C)NC(=O)[C@H](CCCNC(=N)N)NC(=O)[C@H](CCC(N)=O)NC(=O)[C@H](CCCNC(=N)N)NC(=O)[C@H](CCCCNC(=O)COCCOCCNC(=O)CC[C@H](NC(=O)CCCCCCCCCCCCCCCCC(=O)O)C(=O)O)NC(=O)[C@H](CCC(=O)O)NC(=O)[C@H](CC(=O)O)NC(=O)[C@H](CC(C)C)NC(=O)[C@H](CC(C)C)NC(=O)[C@@H](NC(=O)[C@H](CO)NC(=O)[C@H](Cc1ccc(O)cc1)NC(=O)[C@H](CC(=O)O)NC(=O)[C@H](CO)NC(=O)[C@@H](NC(=O)[C@](C)(Cc1ccccc1F)NC(=O)[C@@H](NC(=O)CNC(=O)[C@H](CCC(N)=O)NC(=O)C(C)(C)NC(=O)[C@@H](N)Cc1ccc(O)cc1)[C@@H](C)O)[C@@H](C)O)[C@@H](C)CC)C(=O)N[C@@H](CCC(=O)O)C(=O)N[C@@H](Cc1ccc(O)cc1)C(=O)N[C@@H](CC(C)C)C(=O)N[C@@H](CC(C)C)C(=O)N[C@@H](CCC(=O)O)C(=O)NCC(=O)NCC(=O)N1CCC[C@H]1C(=O)N[C@@H](CO)C(=O)N[C@@H](CO)C(=O)NCC(=O)N[C@@H](C)C(=O)N1CCC[C@H]1C(=O)N1CCC[C@H]1C(=O)N1CCC[C@H]1C(=O)N[C@@H](CO)C(=O)O` [HEC-PT124], the EC50 worked out at 0.228 nM on GLP-1R, 0.332 nM on GCGR and 0.152 nM on GIPR.

On to `CC[C@H](C)[C@H](NC(=O)[C@H](Cc1ccccc1)NC(=O)[C@H](C)NC(=O)[C@H](CCC(N)=O)NC(=O)[C@H](CCC(N)=O)NC(=O)[C@H](C)NC(=O)[C@H](CCCCNC(=O)COCCOCCNC(=O)CC[C@H](NC(=O)CCCCCCCCCCCCCCCCC(=O)O)C(=O)O)NC(=O)[C@H](CCCNC(=N)N)NC(=O)[C@H](CC(=O)O)NC(=O)[C@H](CC(C)C)NC(=O)[C@H](CC(C)C)NC(=O)[C@@H](NC(=O)[C@H](CO)NC(=O)[C@H](Cc1ccc(O)cc1)NC(=O)[C@H](CC(=O)O)NC(=O)[C@H](CO)NC(=O)[C@@H](NC(=O)[C@](C)(Cc1ccccc1F)NC(=O)[C@@H](NC(=O)CNC(=O)[C@H](Cc1c[nH]cn1)NC(=O)C(C)(C)NC(=O)[C@@H](N)Cc1c[nH]cn1)[C@@H](C)O)[C@@H](C)O)[C@@H](C)CC)C(=O)N[C@@H](CCC(=O)O)C(=O)N[C@@H](Cc1ccc(O)cc1)C(=O)N[C@@H](CC(C)C)C(=O)N[C@@H](CC(C)C)C(=O)N[C@@H](C)C(=O)NCC(=O)NCC(=O)N1CCC[C@H]1C(=O)N[C@@H](CO)C(=O)N[C@@H](CO)C(=O)NCC(=O)N[C@@H](C)C(=O)N1CCC[C@H]1C(=O)N1CCC[C@H]1C(=O)N1CCC[C@H]1C(=O)N[C@@H](CO)C(=O)O` [HEC-PT153], for which the results for the EC50 on GLP-1R, at GCGR and at GIPR were 0.0752 nM, 0.0126 nM and 0.0169 nM, respectively.

With `CC[C@H](C)[C@H](NC(=O)[C@H](CCC(=O)O)NC(=O)[C@H](CC(=O)O)NC(=O)[C@H](CC(C)C)NC(=O)[C@H](CC(C)C)NC(=O)[C@@H](NC(=O)[C@H](CO)NC(=O)[C@H](Cc1ccc(O)cc1)NC(=O)[C@H](CC(=O)O)NC(=O)[C@H](CO)NC(=O)[C@@H](NC(=O)[C@](C)(Cc1ccccc1F)NC(=O)[C@@H](NC(=O)CNC(=O)[C@H](CCC(N)=O)NC(=O)C(C)(C)NC(=O)[C@@H](N)Cc1c[nH]cn1)[C@@H](C)O)[C@@H](C)O)[C@@H](C)CC)C(=O)N[C@@H](C)C(=O)N[C@@H](CCC(N)=O)C(=O)N[C@@H](CCCCNC(=O)COCCOCCNC(=O)COCCOCCNC(=O)CC[C@H](NC(=O)CCCCCCCCCCCCCCCCCCC(=O)O)C(=O)O)C(=O)N[C@@H](CC(=O)O)C(=O)N[C@@H](Cc1ccccc1)C(=O)N[C@H](C(=O)N[C@@H](CCC(=O)O)C(=O)N[C@@H](Cc1c[nH]c2ccccc12)C(=O)N[C@@H](CC(C)C)C(=O)N[C@@H](CC(C)C)C(=O)N[C@@H](CCC(=O)O)C(=O)NCC(=O)NCC(=O)N1CCC[C@H]1C(=O)N[C@@H](CO)C(=O)N[C@@H](CO)C(=O)NCC(=O)N[C@@H](C)C(=O)N1CCC[C@H]1C(=O)N1CCC[C@H]1C(=O)N1CCC[C@H]1C(=O)N[C@@H](CO)C(=O)O)[C@@H](C)CC` [HEC-PT67] (H-H[Aib]QGT[αMePhe(2-F)]TSDYSILLDEIAQK([AEEA-AEEA-γGlu-C20 diacid])DFIEWLLEGGPSSGAPPPS-OH), the EC50 on GLP-1R was determined as 0.679 nM; on GCGR it was 57 nM; at GIPR, 0.402 nM.

For `CC[C@H](C)[C@H](NC(=O)[C@H](Cc1ccccc1)NC(=O)[C@H](C)NC(=O)[C@H](CCC(N)=O)NC(=O)[C@H](CCC(N)=O)NC(=O)[C@H](CCCNC(=N)N)NC(=O)[C@@H](NC(=O)[C@H](CCCNC(=N)N)NC(=O)[C@H](CC(=O)O)NC(=O)[C@H](CCCCNC(=O)COCCOCCNC(=O)CC[C@H](NC(=O)CCCCCCCCCCCCCCCCC(=O)O)C(=O)O)NC(=O)[C@H](CC(C)C)NC(=O)[C@@H](NC(=O)[C@H](CO)NC(=O)[C@H](Cc1ccc(O)cc1)NC(=O)[C@H](CC(=O)O)NC(=O)[C@H](CO)NC(=O)[C@@H](NC(=O)[C@](C)(Cc1ccccc1F)NC(=O)[C@@H](NC(=O)CNC(=O)[C@H](CCC(N)=O)NC(=O)C(C)(C)NC(=O)[C@@H](N)Cc1ccc(O)cc1)[C@@H](C)O)[C@@H](C)O)[C@@H](C)CC)[C@@H](C)CC)C(=O)N[C@@H](CCC(=O)O)C(=O)N[C@@H](Cc1ccc(O)cc1)C(=O)N[C@@H](CC(C)C)C(=O)N[C@@H](CC(C)C)C(=O)N[C@@H](CCC(=O)O)C(=O)NCC(=O)NCC(=O)N1CCC[C@H]1C(=O)N[C@@H](CO)C(=O)N[C@@H](CO)C(=O)NCC(=O)N[C@@H](C)C(=O)N1CCC[C@H]1C(=O)N1CCC[C@H]1C(=O)N1CCC[C@H]1C(=O)N[C@@H](CO)C(=O)O` [HEC-PT146] (H-Y[Aib]QGT[αMePhe(2-F)]TSDYSILK([AEEA-γGlu-C18 diacid])DRIRQQAFIEYLLEGGPSSGAPPPS-OH), the EC50 on GLP-1R was found to be 0.365 nM; at GCGR it was 0.121 nM; on GIPR, 0.105 nM.

For the compound `CC[C@H](C)[C@H](NC(=O)[C@H](CO)NC(=O)[C@H](Cc1ccc(O)cc1)NC(=O)[C@H](CC(=O)O)NC(=O)[C@H](CO)NC(=O)[C@@H](NC(=O)[C@](C)(Cc1ccccc1F)NC(=O)[C@@H](NC(=O)CNC(=O)[C@H](CCC(N)=O)NC(=O)C(C)(C)NC(=O)[C@@H](N)Cc1ccc(O)cc1)[C@@H](C)O)[C@@H](C)O)C(=O)N[C@@H](CC(C)C)C(=O)N[C@@H](CC(C)C)C(=O)N[C@@H](CC(=O)O)C(=O)N[C@@H](CCC(=O)O)C(=O)N[C@@H](CCCCNC(=O)COCCOCCNC(=O)CC[C@H](NC(=O)CCCCCCCCCCCCCCCCC(=O)O)C(=O)O)C(=O)N[C@@H](CCCNC(=N)N)C(=O)N[C@@H](CCC(N)=O)C(=O)NC(C)(C)C(=O)N[C@@H](CCC(=O)O)C(=O)N[C@@H](Cc1ccccc1)C(=O)N[C@H](C(=O)N[C@@H](CCC(=O)O)C(=O)N[C@@H](Cc1c[nH]c2ccccc12)C(=O)N[C@@H](CC(C)C)C(=O)N[C@@H](CC(C)C)C(=O)N[C@@H](C)C(=O)NCC(=O)NCC(=O)N1CCC[C@H]1C(=O)N[C@@H](CO)C(=O)N[C@@H](CO)C(=O)NCC(=O)N[C@@H](C)C(=O)N1CCC[C@H]1C(=O)N1CCC[C@H]1C(=O)N1CCC[C@H]1C(=O)N[C@@H](CO)C(N)=O)[C@@H](C)CC` [HEC-PT110], the values for the EC50 at GLP-1R, at GCGR and at GIPR were 0.116 nM, 1.33 nM and 0.045 nM, respectively.

Turning to `CC[C@H](C)[C@H](NC(=O)[C@H](Cc1ccccc1)NC(=O)[C@H](C)NC(=O)[C@H](CCC(N)=O)NC(=O)[C@H](CCC(N)=O)NC(=O)[C@H](CCCNC(=N)N)NC(=O)[C@@H](NC(=O)[C@H](CCCNC(=N)N)NC(=O)[C@H](CC(=O)O)NC(=O)[C@H](CCCCNC(=O)COCCOCCNC(=O)CC[C@H](NC(=O)CCCCCCCCCCCCCCCCC(=O)O)C(=O)O)NC(=O)[C@H](CC(C)C)NC(=O)[C@@H](NC(=O)[C@H](CO)NC(=O)[C@H](Cc1ccc(O)cc1)NC(=O)[C@H](CC(=O)O)NC(=O)[C@H](CO)NC(=O)[C@@H](NC(=O)[C@](C)(Cc1ccccc1F)NC(=O)[C@@H](NC(=O)CNC(=O)[C@H](CCC(N)=O)NC(=O)C(C)(C)NC(=O)[C@@H](N)Cc1ccc(O)cc1)[C@@H](C)O)[C@@H](C)O)[C@@H](C)CC)[C@@H](C)CC)C(=O)N[C@@H](CCC(=O)O)C(=O)N[C@@H](Cc1ccc(O)cc1)C(=O)N[C@@H](CC(C)C)C(=O)N[C@@H](CC(C)C)C(=O)N[C@@H](C)C(=O)NCC(=O)NCC(=O)N1CCC[C@H]1C(=O)N[C@@H](CO)C(=O)N[C@@H](CO)C(=O)NCC(=O)N[C@@H](C)C(=O)N1CCC[C@H]1C(=O)N1CCC[C@H]1C(=O)N1CCC[C@H]1C(=O)N[C@@H](CO)C(=O)O` [HEC-PT147] (H-Y[Aib]QGT[αMePhe(2-F)]TSDYSILK([AEEA-γGlu-C18 diacid])DRIRQQAFIEYLLAGGPSSGAPPPS-OH), the results for the EC50 on GLP-1R, at GCGR and at GIPR were 0.174 nM, 0.17 nM and 0.0861 nM, respectively.
